Laboratory results taken from patent US20230126893A1, “[(1,4,5-TRISUBSTITUTED-1H-PYRAZOL-3-YL)SULFANYL]ACETIC ACID DERIVATIVES, SALTS THEREOF, AND USE THEREOF AS ACTIVE HERBICIDAL INGREDIENTS” (BAYER AKTIENGESELLSCHAFT, priority 2020, published 2023).

Experiments:
Assay type in all cases: in vivo
[1] = system: Veronica persica; experiment: Pre-emergence herbicidal effect against VERPE; conditions: 1280 g/ha, visual score after 3 weeks, 100% = plants have died, 0% = like control plants
Summary of the method: (§1)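 Pre-emergence soil-surface spray, WP/EC formulations in water at 600 to 800 L/ha plus 0.2% wetting agent, sandy loam, greenhouse, visual % damage vs untreated at 3 weeks (100% = plants dead, 0% = like control).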

[2] = system: Lolium rigidum; experiment: Pre-emergence herbicidal effect against LOLRI; conditions: 1280 g/ha, visual score after 3 weeks, 100% = plants have died, 0% = like control plants
Summary of the method: as §1

[3] = system: Digitaria sanguinalis; experiment: Post-emergence herbicidal effect against DIGSA; conditions: 1280 g/ha, visual score after about 3 weeks, 100% = plants have died, 0% = like control plants
Method: (§2) [table] 2. Post-emergence herbicidal effect and crop plant compatibility Seeds of monocotyledonous and dicotyledonous weed and crop plants are laid out in sandy loam soil in wood-fibre pots, covered with soil and cultivated in a greenhouse under good growth conditions. 2 to 3 weeks after sowing, the test plants are treated at the one-leaf stage. The compounds of the invention, formulated in the form of wettable powders (WP) or as emulsion concentrates (EC), are then sprayed onto the green parts of the plants as aqueous suspension or emulsion at a water application rate equating to 600 to 800 l/ha with addition of 0.2% wetting agent. After the test plants have been left to stand in the greenhouse under optimal growth conditions for about 3 weeks, the action of the preparations is assessed visually in comparison to untreated controls (herbicidal action in percent (%): 100% activity=the plants have died, 0% activity=like control plants).

[4] = system: Alopecurus myosuroides; experiment: Pre-emergence herbicidal effect against ALOMY; conditions: 1280 g/ha, visual score after 3 weeks, 100% = plants have died, 0% = like control plants
Summary of the method: as §1

[5] = system: Setaria viridis; experiment: Post-emergence herbicidal effect against SETVI; conditions: 1280 g/ha, visual assessment about 3 weeks after treatment, 100% = plants have died, 0% = like control plants
Method: as §2

[6] = system: Digitaria sanguinalis; experiment: Pre-emergence herbicidal effect against DIGSA; conditions: 1280 g/ha, visual score after 3 weeks, 100% = plants have died, 0% = like control plants
Summary of the method: as §1

[7] = system: Stellaria media; experiment: Post-emergence herbicidal effect against STEME; conditions: 1280 g/ha, visual assessment about 3 weeks after treatment, 100% = plants have died, 0% = like control plants
Summary of the method: (§3)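 Visual score, % action vs untreated controls (100% = plants dead, 0% = like controls), read ~3 wk after spraying. Greenhouse plants in sandy loam, one-leaf stage, 2–3 wk post-sowing. WP/EC as aqueous spray, 600–800 l/ha, 0.2% wetting agent.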

[8] = system: Veronica persica; experiment: Post-emergence herbicidal effect against VERPE; conditions: 1280 g/ha, visual assessment about 3 weeks after treatment, 100% = plants have died, 0% = like control plants
Summary of the method: as §3

[9] = system: Stellaria media; experiment: Pre-emergence herbicidal effect against STEME; conditions: 1280 g/ha, visual score after 3 weeks, 100% = plants have died, 0% = like control plants
Summary of the method: as §1

[10] = system: Tripleurospermum inodorum; experiment: Pre-emergence herbicidal effect against MATIN; conditions: 1280 g/ha, visual score after 3 weeks, 100% = plants have died, 0% = like control plants
Summary of the method: as §1

[11] = system: Bassia scoparia; experiment: Post-emergence herbicidal effect against KCHSC; conditions: 1280 g/ha, visual assessment about 3 weeks after treatment, 100% = plants have died, 0% = like control plants
Summary of the method: as §3

[12] = system: Poa annua; experiment: Post-emergence herbicidal effect against POAAN; conditions: 1280 g/ha, visual assessment about 3 weeks after treatment, 100% = plants have died, 0% = like control plants
Summary of the method: as §3

[13] = system: Poa annua; experiment: Pre-emergence herbicidal effect against POAAN; conditions: 1280 g/ha, visual score after 3 weeks, 100% = plants have died, 0% = like control plants
Summary of the method: as §1

[14] = system: Alopecurus myosuroides; experiment: Post-emergence herbicidal effect against ALOMY; conditions: 1280 g/ha, visual score after about 3 weeks, 100% = plants have died, 0% = like control plants
Summary of the method: as §3

[15] = system: Echinochloa crus-galli; experiment: Post-emergence herbicidal effect against ECHCG; conditions: 1280 g/ha, visual score after about 3 weeks, 100% = plants have died, 0% = like control plants
Summary of the method: as §3

[16] = system: Abutylon threophrasti; experiment: Post-emergence herbicidal effect against ABUTH; conditions: 1280 g/ha, visual assessment about 3 weeks after treatment, 100% = plants have died, 0% = like control plants
Summary of the method: as §3

[17] = system: Amaranthus retroflexus; experiment: Pre-emergence herbicidal effect against AMARE; conditions: 1280 g/ha, visual score after 3 weeks, 100% = plants have died, 0% = like control plants
From the text: (§4) 1. Pre-emergence herbicidal effect and crop plant compatibility Seeds of monocotyledonous and dicotyledonous weed plants and crop plants are laid out in sandy loam soil in wood-fibre pots and covered with soil. The compounds of the invention, formulated in the form of wettable powders (WP) or as emulsion concentrates (EC), are then applied to the surface of the covering soil as aqueous suspension or emulsion at a water application rate equating to 600 to 800 L/ha with addition of 0.2% wetting agent. After the treatment, the pots are placed in a greenhouse and kept under good growth conditions for the trial plants. The damage to the test plants is scored visually after a test period of 3 weeks by comparison with untreated controls (herbicidal activity in percent (%): 100% activity=the plants have died, 0% activity=like control plants). [table]

[18] = system: Amaranthus retroflexus; experiment: Post-emergence herbicidal effect against AMARE; conditions: 1280 g/ha, visual assessment about 3 weeks after treatment, 100% = plants have died, 0% = like control plants
Method: as §2

[19] = system: Tripleurospermum inodorum; experiment: Post-emergence herbicidal effect against MATIN; conditions: 1280 g/ha, visual assessment about 3 weeks after treatment, 100% = plants have died, 0% = like control plants
Summary of the method: as §3

[20] = system: Setaria viridis; experiment: Pre-emergence herbicidal effect against SETVI; conditions: 1280 g/ha, visual score after 3 weeks, 100% = plants have died, 0% = like control plants
Summary of the method: as §1

[21] = system: Echinochloa crus-galli; experiment: Pre-emergence herbicidal effect against ECHCG; conditions: 1280 g/ha, visual score after 3 weeks, 100% = plants have died, 0% = like control plants
Summary of the method: as §1

[22] = system: Bassia scoparia; experiment: Pre-emergence herbicidal effect against KCHSC; conditions: 1280 g/ha, visual score after 3 weeks, 100% = plants have died, 0% = like control plants
From the text: as §4

CCOC(=O)CSc1nn(-c2ccccc2F)c(-c2ccc(F)c(F)c2)c1Cl [Example I-001]
Pre-emergence action against VERPE [1]: 100%
Pre-emergence action against LOLRI [2]: 100%
Post-emergence action against DIGSA [3]: 100%
Pre-emergence action against ALOMY [4]: 100%
Post-emergence action against SETVI [5]: 90%
Pre-emergence action against DIGSA [6]: 100%
Post-emergence action against STEME [7]: 100%
Post-emergence action against VERPE [8]: 100%
Pre-emergence action against STEME [9]: 100%
Pre-emergence action against MATIN [10]: 90%
Post-emergence action against KCHSC [11]: 90%
Post-emergence action against POAAN [12]: 100%
Pre-emergence action against POAAN [13]: 100%
Post-emergence action against ALOMY [14]: 100%
Post-emergence action against ECHCG [15]: 100%
Post-emergence action against ABUTH [16]: 90%
Pre-emergence action against AMARE [17]: 100%
Post-emergence action against AMARE [18]: 90%
Post-emergence action against MATIN [19]: 100%
Pre-emergence action against SETVI [20]: 100%

CCOC(=O)CSc1nn(-c2ccccc2F)c(-c2ccc(F)c(F)c2)c1Br [Example I-002, Ethyl {[4-bromo-5-(3,4-difluorophenyl)-1-(2-fluorophenyl)-1H-pyrazol-3-yl]sulfanyl}acetate]
Pre-emergence action against VERPE [1]: 100%
Pre-emergence action against LOLRI [2]: 100%
Post-emergence action against DIGSA [3]: 100%
Pre-emergence action against ALOMY [4]: 90%
Post-emergence action against SETVI [5]: 100%
Pre-emergence action against DIGSA [6]: 90%
Post-emergence action against STEME [7]: 100%
Post-emergence action against VERPE [8]: 90%
Pre-emergence action against STEME [9]: 100%
Pre-emergence action against MATIN [10]: 100%
Pre-emergence action against POAAN [13]: 100%
Post-emergence action against ALOMY [14]: 100%
Post-emergence action against ABUTH [16]: 90%
Pre-emergence action against AMARE [17]: 100%
Post-emergence action against AMARE [18]: 90%
Post-emergence action against MATIN [19]: 100%
Pre-emergence action against SETVI [20]: 100%

CCOC(=O)CSc1nn(-c2ccccc2F)c(-c2ccc(F)c(F)c2)c1C#N [Example I-012]
Pre-emergence action against VERPE [1]: 100%
Pre-emergence action against LOLRI [2]: 90%
Post-emergence action against DIGSA [3]: 100%
Post-emergence action against SETVI [5]: 90%
Pre-emergence action against DIGSA [6]: 100%
Post-emergence action against STEME [7]: 100%
Post-emergence action against VERPE [8]: 100%
Pre-emergence action against STEME [9]: 100%
Pre-emergence action against MATIN [10]: 100%
Post-emergence action against KCHSC [11]: 90%
Post-emergence action against POAAN [12]: 100%
Pre-emergence action against POAAN [13]: 100%
Post-emergence action against ALOMY [14]: 100%
Post-emergence action against ECHCG [15]: 100%
Pre-emergence action against AMARE [17]: 100%
Post-emergence action against AMARE [18]: 90%
Pre-emergence action against ECHCG [21]: 100%
Post-emergence action against MATIN [19]: 90%
Pre-emergence action against SETVI [20]: 100%

CCOC(=O)C(C)Sc1nn(-c2ccccc2F)c(-c2ccc(F)c(F)c2)c1Br (stereo not shown) [Example I-015]
Pre-emergence action against VERPE [1]: 100%
Pre-emergence action against LOLRI [2]: 100%
Pre-emergence action against ALOMY [4]: 100%
Pre-emergence action against DIGSA [6]: 100%
Post-emergence action against VERPE [8]: 100%
Pre-emergence action against STEME [9]: 100%
Pre-emergence action against MATIN [10]: 100%
Post-emergence action against KCHSC [11]: 90%
Pre-emergence action against KCHSC [22]: 100%
Post-emergence action against POAAN [12]: 100%
Pre-emergence action against POAAN [13]: 100%
Post-emergence action against ALOMY [14]: 100%
Post-emergence action against ECHCG [15]: 100%
Post-emergence action against ABUTH [16]: 90%
Pre-emergence action against ECHCG [21]: 100%
Pre-emergence action against SETVI [20]: 100%

CCOC(=O)CSc1nn(-c2ccccc2F)c(-c2ccc(F)nc2)c1Br [II-001, Ethyl {[4-bromo-1-(2-fluorophenyl)-5-(6-fluoropyridin-3-yl)-1H-pyrazol-3-yl]sulfanyl}acetate]
Pre-emergence action against VERPE [1]: 100%
Pre-emergence action against LOLRI [2]: 100%
Post-emergence action against DIGSA [3]: 100%
Pre-emergence action against ALOMY [4]: 100%
Post-emergence action against SETVI [5]: 90%
Pre-emergence action against DIGSA [6]: 100%
Post-emergence action against STEME [7]: 90%
Post-emergence action against VERPE [8]: 90%
Pre-emergence action against STEME [9]: 90%
Pre-emergence action against MATIN [10]: 100%
Post-emergence action against POAAN [12]: 100%
Pre-emergence action against POAAN [13]: 100%
Post-emergence action against ALOMY [14]: 100%
Post-emergence action against ECHCG [15]: 100%
Post-emergence action against ABUTH [16]: 90%
Pre-emergence action against AMARE [17]: 100%
Post-emergence action against AMARE [18]: 100%
Pre-emergence action against ECHCG [21]: 100%
Post-emergence action against MATIN [19]: 100%
Pre-emergence action against SETVI [20]: 100%

O=C(O)CSc1nn(-c2ccccc2F)c(-c2cncc(Cl)c2)c1Br [II-008]
Pre-emergence action against VERPE [1]: 100%
Pre-emergence action against LOLRI [2]: 100%
Post-emergence action against DIGSA [3]: 100%
Pre-emergence action against ALOMY [4]: 100%
Post-emergence action against SETVI [5]: 90%
Pre-emergence action against DIGSA [6]: 100%
Post-emergence action against STEME [7]: 100%
Post-emergence action against VERPE [8]: 100%
Pre-emergence action against STEME [9]: 100%
Pre-emergence action against MATIN [10]: 100%
Post-emergence action against POAAN [12]: 100%
Pre-emergence action against POAAN [13]: 100%
Post-emergence action against ALOMY [14]: 100%
Post-emergence action against ECHCG [15]: 100%
Post-emergence action against ABUTH [16]: 90%
Pre-emergence action against AMARE [17]: 100%
Post-emergence action against AMARE [18]: 90%
Pre-emergence action against ECHCG [21]: 100%
Post-emergence action against MATIN [19]: 100%
Pre-emergence action against SETVI [20]: 100%
